# ChEMBL document CHEMBL1156790, “Synthesis and structure-activity relationships of antitubercular 2-nitroimidazooxazines bearing heterocyclic side chains” (J Med Chem, 2010)
# Columns and labels:
# [1] = test system: Mycobacterium tuberculosis; test: Antimycobacterial activity against Mycobacterium tuberculosis H37Rv after 16 to 24 hrs by microplate alamar blue assay; format: functional
# [2] = test system: Mycobacterium tuberculosis; test: Antimycobacterial activity against Mycobacterium tuberculosis H37Rv expressing pFCA-luxAB after 10 days by luminescence-based low-oxygen recovery assay; format: functional; conditions: 240 h
# Vero = test: Cytotoxicity against african green monkey Vero cells after 72 hrs by tetrazolium dye assay; format: cell-based; conditions: Chlorocebus sabaeus
# [3] = Solubility in water at pH 7 at 20 degC; format: physicochemical
SMILES,MIC [1] [µM],MIC [2] [µM],IC50 (Vero) [µM],solubility [3] [µg/mL]
O=[N+]([O-])c1cn2c(n1)OC[C@@H](OCc1cnn(-c3ccc(OC(F)(F)F)cc3)n1)C2,0.03,1.6,> 128,
O=[N+]([O-])c1cn2c(n1)OC[C@@H](OCc1cnn(-c3ccc(C(F)(F)F)cc3)c1)C2,0.54,2.3,> 128,4.9
N#Cc1ccc(-n2cc(CO[C@@H]3COc4nc([N+](=O)[O-])cn4C3)nn2)cc1,0.89,11,> 128,
O=[N+]([O-])c1cn2c(n1)OC[C@@H](OCc1cn(-c3ccc(F)cc3)nn1)C2,1.2,6.9,> 128,
COc1ccc(-c2cc(CO[C@@H]3COc4nc([N+](=O)[O-])cn4C3)on2)cc1F,1.1,2,> 128,
O=[N+]([O-])c1cn2c(n1)OC[C@@H](OCc1ccc(-c3ccc(F)cc3)s1)C2,0.05,1.9,> 128,
O=[N+]([O-])c1cn2c(n1)OC[C@@H](OCc1cnn(-c3ccc(F)cc3)n1)C2,0.17,1.4,> 128,
O=[N+]([O-])c1cn2c(n1)OC[C@@H](OCc1ccc(-c3cc(C(F)(F)F)ccn3)s1)C2,0.28,1.7,> 128,
COc1ccc(-c2cc(CO[C@@H]3COc4nc([N+](=O)[O-])cn4C3)on2)cn1,2,4.1,> 128,
O=[N+]([O-])c1cn2c(n1)OC[C@@H](OCc1csc(-c3ccc(OC(F)(F)F)cc3)n1)C2,1.2,1.5,> 128,
Cn1c(CO[C@@H]2COc3nc([N+](=O)[O-])cn3C2)cnc1-c1ccc(C(F)(F)F)cc1,0.65,9.7,> 128,16
O=[N+]([O-])c1cn2c(n1)OC[C@@H](OCc1ccc(-c3ccc(F)nc3)s1)C2,0.86,2.3,> 128,
O=[N+]([O-])c1cn2c(n1)OC[C@@H](OCc1csc(-c3ccc(F)cc3)n1)C2,0.35,2.8,> 128,
O=[N+]([O-])c1cn2c(n1)OC[C@@H](OCc1ccn(-c3ccc(F)cc3)n1)C2,0.11,7.2,> 128,
COc1ccc(-c2ccc(CO[C@@H]3COc4nc([N+](=O)[O-])cn4C3)s2)cc1F,0.06,1,> 128,
O=[N+]([O-])c1cn2c(n1)OC[C@@H](OCc1cc(-c3ccc(OC(F)(F)F)cc3)no1)C2,0.55,1.2,> 128,
N#Cc1ccc(-c2cc(CO[C@@H]3COc4nc([N+](=O)[O-])cn4C3)on2)cc1,1.4,6.2,> 128,
COc1ccc(-n2cc(CO[C@@H]3COc4nc([N+](=O)[O-])cn4C3)nn2)cn1,1.6,12,> 128,
O=[N+]([O-])c1cn2c(n1)OC[C@@H](OCc1cnn(-c3ccccc3)n1)C2,0.25,2.2,> 128,
Cn1nc(-c2ccc(C(F)(F)F)cc2)cc1CO[C@@H]1COc2nc([N+](=O)[O-])cn2C1,0.06,4.1,> 128,
Cn1nc(-c2ccc(F)cc2)cc1CO[C@@H]1COc2nc([N+](=O)[O-])cn2C1,0.36,4,> 128,
O=[N+]([O-])c1cn2c(n1)OC[C@@H](OCc1ccc(-c3cncc(F)c3)s1)C2,0.87,2.3,> 128,
Cn1c(CO[C@@H]2COc3nc([N+](=O)[O-])cn3C2)cnc1-c1ccc(C#N)cc1,2.8,> 32,> 128,

SMILES,MIC [1] [µM],MIC [2] [µM],IC50 (Vero) [µM],solubility [3] [µg/mL]
O=[N+]([O-])c1cn2c(n1)OC[C@@H](OCc1cnn(-c3ccc(F)cc3)c1)C2,0.8,3.9,> 128,
O=[N+]([O-])c1cn2c(n1)OC[C@@H](OCc1ccc(-c3ccc(OC(F)F)cc3)s1)C2,0.86,0.58,> 128,
O=[N+]([O-])c1cn2c(n1)OC[C@@H](OCc1ccc(-c3ccc(C(F)(F)F)cc3)s1)C2,0.16,1,> 128,0.7
O=[N+]([O-])c1cn2c(n1)OC[C@@H](OCc1ccn(-c3ccc(C(F)(F)F)cc3)n1)C2,0.045,1,> 128,5.4
O=[N+]([O-])c1cn2c(n1)OC[C@@H](OCc1nnn(-c3ccc(F)cc3)n1)C2,0.29,3.4,> 128,
N#Cc1ccc(-c2cccc(CO[C@@H]3COc4nc([N+](=O)[O-])cn4C3)c2)cc1,,4.8,> 128,
COc1ccc(-c2nc(CO[C@@H]3COc4nc([N+](=O)[O-])cn4C3)cs2)cc1F,0.2,1.7,> 128,
COc1ccc(-c2ncc(CO[C@@H]3COc4nc([N+](=O)[O-])cn4C3)n2C)cc1F,1.4,> 32,> 128,
O=[N+]([O-])c1cn2c(n1)OC[C@@H](OCc1cccc(-c3ccc(F)cc3)c1)C2,,3.8,> 128,1.8
O=[N+]([O-])c1cn2c(n1)OC[C@@H](OCc1nnn(-c3ccccc3)n1)C2,1.2,5.7,> 128,
O=[N+]([O-])c1cn2c(n1)OC[C@@H](OCc1cccc(-c3ccc(OC(F)(F)F)cc3)c1)C2,,2.2,> 128,
N#Cc1ccc(-c2nc(CO[C@@H]3COc4nc([N+](=O)[O-])cn4C3)cs2)cc1,0.67,3.2,> 128,
COc1ccc(-c2cccc(CO[C@@H]3COc4nc([N+](=O)[O-])cn4C3)c2)cc1F,,2.2,> 128,
O=[N+]([O-])c1cn2c(n1)OC[C@@H](OCc1ccc(-c3ccc(OC(F)(F)F)cc3)s1)C2,0.85,2.6,> 128,
COc1ccc(-c2ccc(CO[C@@H]3COc4nc([N+](=O)[O-])cn4C3)s2)cn1,0.22,4.5,> 128,2.2
COc1ccc(-c2nc(CO[C@@H]3COc4nc([N+](=O)[O-])cn4C3)cs2)cn1,1.4,4.5,> 128,
O=[N+]([O-])c1cn2c(n1)OC[C@@H](OCc1csc(-c3ccc(C(F)(F)F)cc3)n1)C2,1.4,3,> 128,2.8
COc1ccc(-n2cc(CO[C@@H]3COc4nc([N+](=O)[O-])cn4C3)nn2)cc1F,0.86,8.7,> 128,
O=[N+]([O-])c1cn2c(n1)OC[C@@H](OCc1cc(-c3ccc(F)cc3)no1)C2,1.5,1.9,> 128,
Cn1c(CO[C@@H]2COc3nc([N+](=O)[O-])cn3C2)cnc1-c1ccc(F)cc1,1.9,31,> 128,
Cn1c(CO[C@@H]2COc3nc([N+](=O)[O-])cn3C2)cnc1-c1ccc(OC(F)(F)F)cc1,1.1,7.4,> 128,
O=[N+]([O-])c1cn2c(n1)OC[C@@H](OCc1cccc(-c3ccc(C(F)(F)F)cc3)c1)C2,,2.9,> 128,2.8
